Laboratory results from patent US9480688B2, “Pheromone compositions and their use to modify behavior in different vertebrate species” (priority 2011, dated 2016).

Tested on: weaning foals
Experiment: Ointment test on weaning foals, behavioral observations
Format: in vivo, horse
Design: increase of vocalizations compared to control treatment: concentration or dose not given beside the values
Protocol: A total of 20 foals divided into two groups (Group A, n=10; Group B, n=10) were weaned in pens of similar size and at the same time of the day (9 am), and were evaluated using a control and pheromone compositions. All horses were between 5 and 6 months of age and mixed breeds, primarily quarter horses. An ointment form of the composition comprising Androstenone was prepared in accordance with Table 7 for administering to the horses in this study.
An ointment composition containing a different pheromone, 2-methylbut-2-enal (RP, 1 mg/mL), was also prepared for administration in a comparison study. An ointment containing no pheromone was prepared and used as control (CON). In group A, 5 foals were used for the control treatment, 3 foals were used for the RP treatment, and 2 foals were used for the Androstenone treatment. In group B, 3 foals were used for the control treatment, 3 foals were used for the RP treatment, and 4 foals were used for the Androstenone treatment. As such, a total of 8 foals were used for the control treatment, 6 foals were used for the RP treatment, and 6 foals were used for the Androstenone treatment in this entire study. Both of the pheromone formulations and the control were applied to each nostril. Control treatments were administered first to prevent any cross contamination to horses during day two.
Behavioral observations were taken during the first 10 minutes (Group A and Group B) and then for four hours (Group B only) after the mares were separated from their foals. Foal behavior was recorded every minute during the first hour (or 10 minutes) and every 5 minutes for the remaining 3 hours of the study for Group B.
Behaviors were not mutually exclusive.
The number of shocks received by the electric fence (as foals tried to return to their mare) and vocalizations were recorded continuously. The total number of observations of each defined behaviors over the first 4 hours in Group B is presented in Table 9, which also provides the percentage of each behavior over the total number of recorded number of behaviors.

[1] = Group B, first 4 hours after weaning
[2] = Group B, first 4 hours after weaning, ointment in each nostril
[3] = first 10 minutes post weaning (n = 20)
[4] = first 10 minutes post weaning, Group A and Group B (n = 20)

CC=C(C)C=O [RP, 2-methylbut-2-enal, reference compound]
increase of vocalizations compared to control treatment (4 hour period after weaning): 372%
effect on feeding (eating hay) (4 hour period after weaning, compared to control): decreased
Percent of observations: defecation [1]: 0.3%
Percent of observations: drink [1]: 0.3%
Percent of observations: feeding [1]: 2.9%
Percent of observations: fight [1]: 0.0%
Percent of observations: head shake [1]: 0.1%
Percent of observations: interact [1]: 0.0%
Percent of observations: lying [1]: 0.0%
Percent of observations: pace [1]: 1.4%
Percent of observations: paw [1]: 0.0%
Percent of observations: shock [1]: 1.0%
Percent of observations: stand [1]: 30.8%
Percent of observations: trot [1]: 3.1%
Percent of observations: vocal [1]: 58.6%
Percent of observations: walk [1]: 1.4%
Total observations: defecation [2]: 2
Total observations: drink [2]: 2
Total observations: feeding [2]: 21
Total observations: fight [2]: 0
Total observations: head shake [2]: 1
Total observations: interact [2]: 0
Total observations: lying [2]: 0
Total observations: pace [2]: 10
Total observations: paw [2]: 0
Total observations: shock [2]: 7
Total observations: stand [2]: 220
Total observations: trot [2]: 22
Total observations: vocal [2]: 422
Total observations: walk [2]: 10
increase of vocalizations over controls (first 10 minutes after weaning): 42 fold
Percent of observations: defecation [3]: 0.0%
Percent of observations: drink [3]: 0.0%
Percent of observations: eat [3]: 0.0%
Percent of observations: fight [3]: 0.0%
Percent of observations: head shake [3]: 0.0%
Percent of observations: interact [3]: 0.0%
Percent of observations: lying [3]: 0.0%
Percent of observations: pace [3]: 6.1%
Percent of observations: paw [3]: 0.0%
Percent of observations: shock [3]: 3.3%
Percent of observations: stand [3]: 24.2%
Percent of observations: trot [3]: 66.7%
Percent of observations: vocal [3]: 69.7%
Percent of observations: walk [3]: 3.0%
Total observations: defecation [4]: 0
Total observations: drink [4]: 0
Total observations: eat [4]: 0
Total observations: fight [4]: 0
Total observations: head shake [4]: 0
Total observations: interact [4]: 0
Total observations: lying [4]: 0
Total observations: pace [4]: 2
Total observations: paw [4]: 0
Total observations: shock [4]: 4
Total observations: stand [4]: 8
Total observations: trot [4]: 22
Total observations: vocal [4]: 85
Total observations: walk [4]: 1
